The text below walks through data of patent US11254700B2, “GSK-3β inhibitors and use thereof in methods of treatment” (UNIVERSITY OF HAWAII, priority 2017, dated 2022).

The subject of this assay is TNFα, IL-2, IFN-γ, IL-4, IL-10. Kind of assay: Serum cytokines. It is filed as in vivo, mouse. The conditions noted are these: APP/PS1 mice, vs model group. Here is the method: The backgrounds of all mice (APP/PS1 dual transgenic mice and wild-type mice with littermates) were C57/B6. Transgenic mice were randomly divided into three groups (n=20 for each group), and wild-type mice were used as controls (n=20). The control group and one group of transgenic mice (model group) were given sterilized ultrapure water, and the other two groups of transgenic mice received low- and high-dose Isoorientin (20 and 50 mg/kg, respectively) via intragastric administration for 60 days. Throughout the study-period, animals were housed in a controlled environment (temperature, 22° C.; humidity, 50-60%, 12-hour light/12-hour dark schedules), with free access to rodent chow and water. After a Morris water maze test, mice were perfused with cold phosphate-buffered saline (PBS), brain tissues were dissected and kept frozen at −80° C. until further analysis. […] T-cell-specific cytokines (Interferon-γ (IFN-γ), interleukin (IL)-2, IL-4, and IL-10) in mouse serum were also measured. Mouse Th17 Magnetic Bead Panel 96-Well Plate Assay was purchased from Millipore. The assay was performed in a 96-well plate and all reagents were prepared according to the Millipore instructions. Briefly, 200 μL of Wash Buffer was added into each well to pre-wet plate, Wash Buffer was decanted thoroughly and the plate was mixed on a plate shaker for 10 minutes at room temperature (25-27° C.). In accordance with the instructions of the kit, the appropriate reagents were added to the wells and the plate was sealed and incubated overnight at 4° C. in the dark. Plates were put on the magnetic support and each well was washed twice with 200 μl of wash buffer via a plate shaker at 450 rpm for 2 minutes at room temperature. After adding 5 μl of detection antibody to each well, the plate was sealed and incubated with agitation on a plate shaker for 1 hour at room temperature. […] Binding was assessed using a LUMINEX-200 instrument and xPONENT software. Serum samples were analyzed for IL4 and TNFα using a Mouse IL4 ELISA Kit and a Mouse TNFα ELISA Kit, respectively, according to the manufacturer's instructions. […]

For `O=c1cc(-c2ccc(O)c(O)c2)oc2cc(O)c([C@@H]3O[C@H](CO)[C@@H](O)[C@H](O)[C@H]3O)c(O)c12` [Compound 1, isoorientin], the IFNγ in serum entry is “no statistical difference in the decrease”; the “anti-inflammatory factors (IL-4, IL-10) in serum” value was “significantly elevated”; the “pro-inflammatory factors (TNFα, IFNγ, IL-2) in serum” value was “slightly lower than those in the model group”.
